Experimental data taken from article PMC12239085, “Silver(I) Ions Bridging Oxadiazole-2-thione Derivatives with Mitochondriotropic Agents: A Promising Strategy for Potent Anticancer Chemotherapy” (Inorganic Chemistry, 2025).

Experiments:
lipoxygenase (LOX) = target: T1, lipoxygenase (LOX) (Glycine max, UniProt P08170); test: Inhibition of linoleic acid peroxidation by LOX; assay type: biochemical; conditions: for IC50: linoleic acid 0.3 mM, borate buffer pH 9, read-out: IC50 against LOX; for pIC50 LOX: p(IC50)= -Log(IC50), Table S4, this study
T1 sequence (P08170 1-839): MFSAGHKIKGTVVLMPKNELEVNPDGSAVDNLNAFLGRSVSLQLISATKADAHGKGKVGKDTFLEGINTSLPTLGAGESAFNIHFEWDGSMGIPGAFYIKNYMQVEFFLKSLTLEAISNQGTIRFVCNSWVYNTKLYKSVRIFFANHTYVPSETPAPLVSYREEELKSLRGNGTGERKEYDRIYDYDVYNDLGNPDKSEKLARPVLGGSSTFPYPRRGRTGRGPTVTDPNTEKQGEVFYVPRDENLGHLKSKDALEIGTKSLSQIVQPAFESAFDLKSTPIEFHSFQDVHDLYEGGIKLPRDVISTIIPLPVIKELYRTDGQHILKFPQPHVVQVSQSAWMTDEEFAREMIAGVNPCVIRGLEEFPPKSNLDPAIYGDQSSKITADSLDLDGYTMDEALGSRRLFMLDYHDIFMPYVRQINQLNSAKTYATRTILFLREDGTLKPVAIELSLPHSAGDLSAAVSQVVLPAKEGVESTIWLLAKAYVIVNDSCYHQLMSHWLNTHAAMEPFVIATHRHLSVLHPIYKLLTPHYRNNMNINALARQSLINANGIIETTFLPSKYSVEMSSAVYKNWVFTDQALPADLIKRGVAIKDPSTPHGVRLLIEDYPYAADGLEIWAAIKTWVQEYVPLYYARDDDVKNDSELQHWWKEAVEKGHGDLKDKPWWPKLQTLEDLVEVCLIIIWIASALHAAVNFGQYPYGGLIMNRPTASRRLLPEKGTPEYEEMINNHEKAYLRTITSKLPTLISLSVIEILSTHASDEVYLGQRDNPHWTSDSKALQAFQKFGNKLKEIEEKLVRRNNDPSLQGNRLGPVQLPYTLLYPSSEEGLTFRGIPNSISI
Method: This study performed as previously reported. , In brief, a 0.2 M borate buffer solution at pH 9 was prepared by dissolving boric acid in double-distilled water (ddw). The pH was then adjusted to 9.0 using a 50% w/w sodium hydroxide solution.
The linoleic acid substrate solution was prepared as follows: 0.05 mL of linoleic acid was dissolved in 0.05 cm^3 of 95% ethanol within a volumetric flask. Subsequently, double-distilled water was gradually added until reaching a final volume of 5 cm^3. This solution was then diluted with 30 cm^3 of borate buffer.
The LOX enzyme solution was prepared in an ice-cold bath by diluting a stock solution of 10,000 U/mL. For each reaction, 500 U of enzyme was used per 3 cm^3 of reaction mixture. One unit of LOX activity corresponds to an increase in absorbance at 234 nm of 0.001 per minute.
Enzyme activity was monitored by UV spectrophotometry. Specifically, 0.05 cm^3 of enzyme solution was added to a cuvette containing 2 cm^3 of linoleic acid solution, along with the appropriate volumes of buffer and inhibitor solutions 1–5 (concentration range of 1.5 to 12.5 μΜ). The enzymatic activity was determined by measuring the increase in absorbance at 234 nm, which corresponds to the oxidation of linoleic acid (ε = 25,000 M^–1 cm^–1). During the assays, the substrate concentration was maintained constant at 0.3 mM, while the buffer and inhibitor volumes were adjusted to achieve final inhibitor concentrations ranging from 2 to 30 μM.
The degree of LOX activity (A%) in the presence or absence of the 1–5 was calculated according to the following equation: , A%=(Vo(inthepresenceofinhibitor/Vo(withoutinhibitor))×100(%) where V o is the initial rate.
The value of the initial rate (V o, μΜ min^–1) was calculated according to the following formula: Vo=ΔC/Δt=ΔA/ε×Δt=tgα/ε where C is the concentration of the product (hydroperoxy-linoleic acid), t is the reaction time, ε is the molar extinction coefficient of hydroperoxy-linoleic acid, and tgα represents the slope of the kinetic curve obtained by plotting absorbance against time.

[1] = system: normal human fetal lung fibroblast (MRC-5) cells; test: SRB toxicity assay, MRC-5; assay type: cell-based; conditions: 48 h incubation
Method: Stock solutions of compounds 1a–5a and 1–5 (0.01 M) in DMSO were freshly prepared and subsequently diluted with cell culture media to appropriate concentrations for various biological experiments. These included the assessment of cell viability using the SRB assay, micronucleus testing, cell morphology studies, cell cycle arrest, AO/EB staining, and mitochondrial membrane permeabilization tests. For CT-DNA binding studies, experiments were conducted in DMSO/buffer solutions. All biological experiments were performed in triplicate or more.
Stock solutions of 1a–5a and 1–5 (0.01 M) were dissolved in DMSO and subsequently diluted with cell culture medium to the desired concentrations (0.5–30 μM). MCF-7, MDA MB-231, and MRC-5 cells were plated in 96-well flat-bottom microplates at various densities: 6000, 8000, and 2000 cells per well, respectively. The cells were incubated for 24 h at 37 °C and then exposed to 1a–5a and 1–5 for 48 h. ,–
Cytotoxicity was evaluated using the SRB colorimetric assay at λ = 568 nm, with cell survival percentages calculated relative to the untreated control cells. Detailed information on the SRB assay procedure can be found in the previous publication. ,–

SMILES	IC50 (lipoxygenase (LOX)) [µM]	pIC50 LOX (lipoxygenase (LOX))	IC50 [1] [µM]
Clc1cccc(-c2nnc([S][Ag]([PH](c3ccccc3)(c3ccccc3)c3ccccc3)([PH](c3ccccc3)(c3ccccc3)c3ccccc3)[PH](c3ccccc3)(c3ccccc3)c3ccccc3)o2)c1 [compound 5]	1.8	5.7	2.89 ± 0.08
Fc1ccc(-c2nnc([S][Ag]([PH](c3ccccc3)(c3ccccc3)c3ccccc3)([PH](c3ccccc3)(c3ccccc3)c3ccccc3)[PH](c3ccccc3)(c3ccccc3)c3ccccc3)o2)cc1 [compound 3]	6.8	5.2	2.72 ± 0.19
Fc1ccccc1-c1nnc([S][Ag]([PH](c2ccccc2)(c2ccccc2)c2ccccc2)([PH](c2ccccc2)(c2ccccc2)c2ccccc2)[PH](c2ccccc2)(c2ccccc2)c2ccccc2)o1 [compound 2]	7.3	5.1	3.12 ± 0.11
Clc1ccccc1-c1nnc([S][Ag]([PH](c2ccccc2)(c2ccccc2)c2ccccc2)([PH](c2ccccc2)(c2ccccc2)c2ccccc2)[PH](c2ccccc2)(c2ccccc2)c2ccccc2)o1 [compound 4]	7.5	5.1	4.07 ± 0.24
c1ccc(-c2nnc([S][Ag]([PH](c3ccccc3)(c3ccccc3)c3ccccc3)([PH](c3ccccc3)(c3ccccc3)c3ccccc3)[PH](c3ccccc3)(c3ccccc3)c3ccccc3)o2)cc1 [compound 1]	2.5	5.6	3.77 ± 0.16
